Source: ChEMBL document CHEMBL1201862, “PubChem BioAssay data set” (2004)
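Tested at 5 concentrations; 48 h exposure; 96-well plates; endpoints linearly interpolated, else capped at highest concentration. Here, GI50 denotes the concentration required for 50% inhibition of growth.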 Activity calls are given as the source filed them. No stated cut-off is given here; in the data, active = GI50 up to about 1.1 µM and inactive = higher.

Columns and labels:
Assay in all cases: DTP human tumour cell line panel, 48 h
A549 = tested on: A549
CAKI-1 = tested on: CAKI-1
CCRF-CEM = tested on: CCRF-CEM
COLO 205 = tested on: COLO 205
HCC 2998 = tested on: HCC 2998
K562 = tested on: K562
M14 = tested on: M14
NCI-H226 = tested on: NCI-H226
OVCAR-3 = tested on: OVCAR-3
OVCAR-4 = tested on: OVCAR-4
OVCAR-8 = tested on: OVCAR-8
SF-295 = tested on: SF-295
SK-MEL-28 = tested on: SK-MEL-28
SNB-75 = tested on: SNB-75
U-251 = tested on: U-251
UACC-62 = tested on: UACC-62
HL-60 = tested on: HL-60
TK-10 = tested on: TK-10
HOP-92 = tested on: HOP-92

SMILES	GI50 (A549)	GI50 (CAKI-1)	GI50 (CCRF-CEM)	GI50 (COLO 205)	GI50 (HCC 2998)	GI50 (K562)	GI50 (M14)	GI50 (NCI-H226)	GI50 (OVCAR-3)	GI50 (OVCAR-4)	GI50 (OVCAR-8)	GI50 (SF-295)	GI50 (SK-MEL-28)	GI50 (SNB-75)	GI50 (U-251)	GI50 (UACC-62)	GI50 (HL-60)	GI50 (TK-10)	GI50 (HOP-92)
CCCCCC[C@@H]1CCC2C(CO)[C@@H](O)CC[C@@H]2C1 (some centres not stated)	17.4 µM (inactive)	> 10 µM (inactive)	23.6 µM (inactive)	18.5 µM (inactive)	22 µM (inactive)	21.3 µM (inactive)	17.5 µM (inactive)	20.6 µM (inactive)	15.8 µM (inactive)	16.3 µM (inactive)	18.2 µM (inactive)	16.2 µM (inactive)	19.6 µM (inactive)	22.8 µM (inactive)	18.2 µM (inactive)	21.3 µM (inactive)	–	–	–
CCCC(CCN)(CCN)[N+](=O)[O-]	> 100 µM (inactive)	> 100 µM (inactive)	> 100 µM (inactive)	> 100 µM (inactive)	–	> 100 µM (inactive)	> 100 µM (inactive)	> 100 µM (inactive)	–	> 100 µM (inactive)	> 100 µM (inactive)	> 100 µM (inactive)	–	11.2 µM (inactive)	> 100 µM (inactive)	> 100 µM (inactive)	> 100 µM (inactive)	> 100 µM (inactive)	–
Cc1cccc(NC(=O)CSc2nnc(Cc3ccccc3)o2)c1	> 100 µM (inactive)	> 100 µM (inactive)	> 100 µM (inactive)	> 100 µM (inactive)	> 100 µM (inactive)	> 100 µM (inactive)	> 100 µM (inactive)	> 100 µM (inactive)	> 100 µM (inactive)	> 100 µM (inactive)	> 100 µM (inactive)	> 100 µM (inactive)	> 100 µM (inactive)	63.8 µM (inactive)	> 100 µM (inactive)	> 100 µM (inactive)	> 100 µM (inactive)	> 100 µM (inactive)	–
CCN(CC)c1cccc2c1C1(O)CCC3(CC21)OCCCCO3 (configuration not stated)	49 µM (inactive)	> 100 µM (inactive)	90.4 µM (inactive)	> 100 µM (inactive)	> 100 µM (inactive)	> 100 µM (inactive)	> 100 µM (inactive)	63.4 µM (inactive)	84.9 µM (inactive)	> 100 µM (inactive)	44.9 µM (inactive)	28.8 µM (inactive)	> 100 µM (inactive)	36.5 µM (inactive)	39.9 µM (inactive)	–	> 100 µM (inactive)	> 100 µM (inactive)	–
N#CC1(C2CC(=O)N(c3ccccc3)C2=O)CCCCC1=O (configuration not stated)	> 100 µM (inactive)	–	> 100 µM (inactive)	> 100 µM (inactive)	0.104 µM (active)	> 100 µM (inactive)	> 100 µM (inactive)	> 100 µM (inactive)	> 100 µM (inactive)	> 100 µM (inactive)	> 100 µM (inactive)	> 100 µM (inactive)	> 100 µM (inactive)	> 100 µM (inactive)	> 100 µM (inactive)	> 100 µM (inactive)	> 100 µM (inactive)	> 100 µM (inactive)	–
C=CCNC(=S)N1CC(C)C(=O)Nc2ccccc21 (configuration not stated)	> 100 µM (inactive)	–	> 100 µM (inactive)	> 100 µM (inactive)	–	> 100 µM (inactive)	> 100 µM (inactive)	> 100 µM (inactive)	> 100 µM (inactive)	> 100 µM (inactive)	> 100 µM (inactive)	> 100 µM (inactive)	> 100 µM (inactive)	35.5 µM (inactive)	> 100 µM (inactive)	> 100 µM (inactive)	> 100 µM (inactive)	> 100 µM (inactive)	–
Cc1ccc(C2=Nc3ccccc3[S+]([O-])C(c3ccc4c(c3)OCO4)C2)cc1 (configuration not stated)	28.6 µM (inactive)	24.5 µM (inactive)	26.2 µM (inactive)	29.6 µM (inactive)	> 10 µM (inactive)	27.7 µM (inactive)	17.6 µM (inactive)	52.6 µM (inactive)	27.7 µM (inactive)	29.3 µM (inactive)	20.5 µM (inactive)	40.1 µM (inactive)	24.5 µM (inactive)	88.3 µM (inactive)	13 µM (inactive)	18.3 µM (inactive)	19.1 µM (inactive)	44.7 µM (inactive)	–
CCOC(=O)C(C(=O)Cc1ccccc1)c1ccccc1 (configuration not stated)	> 100 µM (inactive)	> 100 µM (inactive)	> 100 µM (inactive)	> 100 µM (inactive)	–	> 100 µM (inactive)	> 100 µM (inactive)	> 100 µM (inactive)	> 100 µM (inactive)	> 100 µM (inactive)	> 100 µM (inactive)	> 100 µM (inactive)	> 100 µM (inactive)	80 µM (inactive)	> 100 µM (inactive)	> 100 µM (inactive)	> 100 µM (inactive)	> 100 µM (inactive)	57 µM (inactive)
COc1c(Sc2c(SCSc3cnc4ccccc4c3Sc3cnc4ccccc4c3OC)cnc3ccccc23)cnc2ccccc12	> 100 µM (inactive)	> 100 µM (inactive)	> 100 µM (inactive)	> 100 µM (inactive)	> 100 µM (inactive)	–	> 100 µM (inactive)	–	> 100 µM (inactive)	37.2 µM (inactive)	31.7 µM (inactive)	> 100 µM (inactive)	29 µM (inactive)	21.7 µM (inactive)	30.1 µM (inactive)	39.1 µM (inactive)	1.59 µM (inactive)	38.6 µM (inactive)	13.2 µM (inactive)
CCNC(=O)O/N=C1\CCC2[C@@H]3CC=C4C[C@@H](OC5CCCCO5)CC[C@]4(C)C3CC[C@]12C (some centres not stated)	2.74 µM (inactive)	2.5 µM (inactive)	–	0.964 µM (active)	2.89 µM (inactive)	1.37 µM (inactive)	1.71 µM (inactive)	–	2.59 µM (inactive)	1.47 µM (inactive)	3.9 µM (inactive)	2.17 µM (inactive)	3.19 µM (inactive)	1.91 µM (inactive)	1.89 µM (inactive)	0.733 µM (active)	–	2 µM (inactive)	2.48 µM (inactive)
COc1cc(C(=O)NO)ccc1O	> 100 µM (inactive)	–	> 100 µM (inactive)	> 100 µM (inactive)	> 100 µM (inactive)	> 100 µM (inactive)	> 100 µM (inactive)	–	> 100 µM (inactive)	> 100 µM (inactive)	> 100 µM (inactive)	> 100 µM (inactive)	> 100 µM (inactive)	> 100 µM (inactive)	> 100 µM (inactive)	> 100 µM (inactive)	> 100 µM (inactive)	> 100 µM (inactive)	> 100 µM (inactive)
COC(=O)C(=O)C(CC(=O)Nc1c(C)cccc1C)C(=O)OC (configuration not stated)	> 100 µM (inactive)	> 100 µM (inactive)	> 100 µM (inactive)	–	> 100 µM (inactive)	> 100 µM (inactive)	> 100 µM (inactive)	> 100 µM (inactive)	> 100 µM (inactive)	> 100 µM (inactive)	> 100 µM (inactive)	> 100 µM (inactive)	> 100 µM (inactive)	–	> 100 µM (inactive)	> 100 µM (inactive)	> 100 µM (inactive)	> 100 µM (inactive)	> 100 µM (inactive)
O=C(CSc1nnc(Cc2ccccc2)o1)Nc1ccc(Cl)cc1Cl	> 100 µM (inactive)	> 100 µM (inactive)	> 100 µM (inactive)	> 100 µM (inactive)	> 100 µM (inactive)	> 100 µM (inactive)	> 100 µM (inactive)	> 100 µM (inactive)	> 100 µM (inactive)	> 100 µM (inactive)	> 100 µM (inactive)	> 100 µM (inactive)	> 100 µM (inactive)	> 100 µM (inactive)	> 100 µM (inactive)	> 100 µM (inactive)	> 100 µM (inactive)	> 100 µM (inactive)	–
CN(C)c1n/c(=N/c2ccc3ccccc3c2)ss1	12.2 µM (inactive)	5.87 µM (inactive)	7.05 µM (inactive)	11.2 µM (inactive)	33.7 µM (inactive)	15.1 µM (inactive)	24 µM (inactive)	13.4 µM (inactive)	12.2 µM (inactive)	17.5 µM (inactive)	19.5 µM (inactive)	–	34.8 µM (inactive)	20.8 µM (inactive)	6.22 µM (inactive)	21.5 µM (inactive)	16.1 µM (inactive)	14.1 µM (inactive)	–
COc1ccc(C(c2ccccc2C(=O)O)c2ccc(OC)c3ccccc23)c2ccccc12	7.48 µM (inactive)	28.8 µM (inactive)	8.79 µM (inactive)	13 µM (inactive)	6.49 µM (inactive)	5.2 µM (inactive)	16.2 µM (inactive)	20 µM (inactive)	13.5 µM (inactive)	10.7 µM (inactive)	10.5 µM (inactive)	11.1 µM (inactive)	–	–	7.83 µM (inactive)	4.71 µM (inactive)	7.33 µM (inactive)	19.9 µM (inactive)	33.5 µM (inactive)
COC(=O)C(Cc1ccccc1)NC(=O)Cn1ccnc1[N+](=O)[O-] (configuration not stated)	> 100 µM (inactive)	> 100 µM (inactive)	> 100 µM (inactive)	77.3 µM (inactive)	–	> 100 µM (inactive)	> 100 µM (inactive)	34 µM (inactive)	> 10 µM (inactive)	> 100 µM (inactive)	> 100 µM (inactive)	> 100 µM (inactive)	> 100 µM (inactive)	94.8 µM (inactive)	> 100 µM (inactive)	> 100 µM (inactive)	> 100 µM (inactive)	> 100 µM (inactive)	63.8 µM (inactive)
